In PubChem BioAssay AID330 (DTP/NCI, 2004):
Values joined by “and” are separate entries in the source; they are usually repeats but may differ in a detail not shown here. Identical values can stand only once. Toxic doses and inconclusive results are not listed. How the source made its calls: active means survival T/C of 150% or more; inactive means T/C below 125% in these data.

System: P388 leukemia ip, CD2F1 mice, survival T/C
Experiment: NCI In Vivo Anticancer Drug Screen. Data for tumor model P388 Leukemia (intraperitoneal) in CD2F1 (CDF1) mice
Conditions: endpoint: median survival time, higher = longer survival
Method in brief: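 Mice carrying the transplanted tumor received test compound or vehicle. Survival was recorded in each group, and the value is the treated-group measurement divided by that of the vehicle-treated control group.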

[1] = dose: 25.0 mg/kg/injection, schedule: Q01DX009 (ip), vehicle: saline with Tween-80
[2] = dose: 50.0 mg/kg/injection, schedule: Q04DX003 (ip), vehicle: Klucel (hydroxypropylcellulose) (HPC)
[3] = dose: 100.0 mg/kg/injection, schedule: Q04DX003 (ip), vehicle: saline
[4] = dose: 60.0 mg/kg/injection, schedule: Q01DX005 (ip), vehicle: saline with Tween-80
[5] = dose: 120.0 mg/kg/injection, schedule: Q01DX005 (ip), vehicle: saline with Tween-80
[6] = dose: 240.0 mg/kg/injection, schedule: Q01DX005 (ip), vehicle: saline with Tween-80
[7] = dose: 25.0 mg/kg/injection, schedule: Q01DX009 (ip), vehicle: saline
[8] = dose: 50.0 mg/kg/injection, schedule: Q01DX009 (ip), vehicle: saline
[9] = dose: 50.0 mg/kg/injection, schedule: Q01DX009 (ip), vehicle: Klucel (hydroxypropylcellulose) (HPC)
[10] = dose: 100.0 mg/kg/injection, schedule: Q01DX009 (ip), vehicle: Klucel (hydroxypropylcellulose) (HPC)
[11] = dose: 100.0 mg/kg/injection, schedule: Q01DX009 (ip), vehicle: saline with Tween-80
[12] = dose: 200.0 mg/kg/injection, schedule: Q01DX009 (ip), vehicle: saline with Tween-80

Measured: T/C

CN(C)CCCN1c2ccccc2Sc2ccc(Cl)cc21
inactive: dose: 1.0 mg/kg/injection, schedule: Q01DX005 (ip), vehicle: saline 99 % of control | dose: 2.0 mg/kg/injection, schedule: Q01DX005 (ip), vehicle: saline 96 % of control | dose: 4.0 mg/kg/injection, schedule: Q01DX005 (ip), vehicle: saline 104 % of control | dose: 6.25 mg/kg/injection, schedule: Q01DX009 (ip), vehicle: saline with Tween-80 95 % of control | dose: 7.5 mg/kg/injection, schedule: Q04DX003 (ip), vehicle: saline 112 % of control | dose: 8.0 mg/kg/injection, schedule: Q01DX005 (ip), vehicle: saline 106 % of control | dose: 12.5 mg/kg/injection, schedule: Q04DX003 (ip), vehicle: Klucel (hydroxypropylcellulose) (HPC) 111 % of control | dose: 12.5 mg/kg/injection, schedule: Q04DX003 (ip), vehicle: saline 108 % of control and 113 % of control and 120 % of control | dose: 15.0 mg/kg/injection, schedule: Q04DX003 (ip), vehicle: saline 120 % of control | dose: 16.0 mg/kg/injection, schedule: Q01DX005 (ip), vehicle: saline 106 % of control | [1] 100 % of control | dose: 25.0 mg/kg/injection, schedule: Q04DX003 (ip), vehicle: saline 111 % of control and 114 % of control and 118 % of control | dose: 32.0 mg/kg/injection, schedule: Q01DX005 (ip), vehicle: saline 116 % of control | [2] 108 % of control | dose: 50.0 mg/kg/injection, schedule: Q04DX003 (ip), vehicle: saline 105 % of control | dose: 64.0 mg/kg/injection, schedule: Q01DX005 (ip), vehicle: saline 105 % of control | [3] 99 % of control

ClC(Cl)Cl
inactive: dose: 0.25 % in 0.5 ml injection vol, schedule: Q01DX009 (ip), vehicle: water 100 % of control | dose: 0.5 % in 0.5 ml injection vol, schedule: Q01DX009 (ip), vehicle: water 96 % of control | dose: 1.0 % in 0.5 ml injection vol, schedule: Q01DX009 (ip), vehicle: water 100 % of control

O=C1OC(c2ccccc2)=N/C1=C\c1cccc([N+](=O)[O-])c1
inactive: dose: 50.0 mg/kg/injection, schedule: Q04DX002 (ip), vehicle: saline with Tween-80 96 % of control | dose: 100.0 mg/kg/injection, schedule: Q04DX002 (ip), vehicle: saline with Tween-80 97 % of control | dose: 200.0 mg/kg/injection, schedule: Q04DX002 (ip), vehicle: saline with Tween-80 99 % of control | dose: 400.0 mg/kg/injection, schedule: Q04DX002 (ip), vehicle: saline with Tween-80 99 % of control

CCOC(=O)Nc1cc2c(cn1)[nH]c1ccccc12
inactive: [4] 105 % of control | [5] 114 % of control | [6] 112 % of control

[Cl][Pd][Cl].[NH-]C(C(=O)O)c1ccccc1.[NH-]C(C(=O)O)c1ccccc1 (centres undefined)
inactive: [3] 103 % of control | dose: 200.0 mg/kg/injection, schedule: Q04DX003 (ip), vehicle: saline 97 % of control | dose: 400.0 mg/kg/injection, schedule: Q04DX003 (ip), vehicle: saline 109 % of control

CCOC(=O)c1ccc2c(c1)Nc1cc3ccccc3cc1N2
inactive: dose: 25.0 mg/kg/injection, schedule: Q01DX009 (ip), vehicle: saline + alcohol 104 % of control | dose: 50.0 mg/kg/injection, schedule: Q01DX009 (ip), vehicle: saline + alcohol 88 % of control | dose: 100.0 mg/kg/injection, schedule: Q01DX009 (ip), vehicle: saline + alcohol 101 % of control

Cc1ccc(S(=O)(=O)c2ccc(Sc3cccc[n+]3[O-])c3nonc23)cc1
inactive: dose: 6.25 mg/kg/injection, schedule: Q01DX009 (ip), vehicle: saline 103 % of control | dose: 12.5 mg/kg/injection, schedule: Q01DX009 (ip), vehicle: saline 116 % of control | dose: 12.5 mg/kg/injection, schedule: Q01DX009 (ip), vehicle: suspension in saline 110 % of control | [7] 100 % of control | dose: 25.0 mg/kg/injection, schedule: Q01DX009 (ip), vehicle: suspension in saline 121 % of control | [8] 103 % of control

O=NN(C(=O)NCCCl)c1[nH]c(=O)ncc1Cl
inactive: dose: 25.0 mg/kg/injection, schedule: Q01DX005 (ip), vehicle: Klucel (hydroxypropylcellulose) (HPC) 97 % of control | dose: 50.0 mg/kg/injection, schedule: Q01DX005 (ip), vehicle: Klucel (hydroxypropylcellulose) (HPC) 100 % of control | dose: 100.0 mg/kg/injection, schedule: Q01DX005 (ip), vehicle: Klucel (hydroxypropylcellulose) (HPC) 108 % of control

CC1C(c2ccccc2)OCCN1C=NC#N (centres undefined)
inactive: [9] 102 % of control | [10] 103 % of control | dose: 200.0 mg/kg/injection, schedule: Q01DX009 (ip), vehicle: Klucel (hydroxypropylcellulose) (HPC) 103 % of control

ClC1=CC(=N/Br)/C=CC/1=N/Br
inactive: dose: 50.0 mg/kg/injection, schedule: Q01DX005 (ip), vehicle: saline with Tween-80 99 % of control and 101 % of control and 107 % of control | dose: 100.0 mg/kg/injection, schedule: Q01DX005 (ip), vehicle: saline with Tween-80 100 % of control and 103 % of control and 97 % of control | dose: 200.0 mg/kg/injection, schedule: Q01DX005 (ip), vehicle: saline with Tween-80 106 % of control and 108 % of control and 120 % of control

Cc1c(Cl)cnc(N)c1Cl (tested in a mixture with another compound)
inactive: [1] 93 % of control | dose: 50.0 mg/kg/injection, schedule: Q01DX009 (ip), vehicle: saline with Tween-80 90 % of control | [11] 93 % of control | [12] 95 % of control

CC1=C(C)Cn2c(=O)c3cc4ccccc4cc3c(=O)n2C1
inactive: [9] 90 % of control | [10] 90 % of control

O=c1[nH]c(=O)c2cc(Cl)cc(Cl)c2[nH]1
inactive: dose: 50.0 mg/kg/injection, schedule: Q01DX001 (ip), vehicle: saline with Tween-80 90 % of control | dose: 100.0 mg/kg/injection, schedule: Q01DX001 (ip), vehicle: saline with Tween-80 90 % of control | dose: 200.0 mg/kg/injection, schedule: Q01DX001 (ip), vehicle: saline with Tween-80 90 % of control

NC(=O)Nc1ccc(Cl)cc1[N+](=O)[O-]
inactive: dose: 37.5 mg/kg/injection, schedule: Q01DX009 (ip), vehicle: Klucel (hydroxypropylcellulose) (HPC) 99 % of control | dose: 75.0 mg/kg/injection, schedule: Q01DX009 (ip), vehicle: Klucel (hydroxypropylcellulose) (HPC) 98 % of control

COc1cc(OC)c(OC)cc1/C=C/c1ccc2ccccc2n1
inactive: [11] 110 % of control | [12] 110 % of control | dose: 400.0 mg/kg/injection, schedule: Q01DX009 (ip), vehicle: saline with Tween-80 110 % of control

Oc1ccc2c(c1)[C@]13CCCCC1[C@H](C2)N(Cc1ccoc1)CC3 (some centres undefined)
inactive: [7] 97 % of control | [8] 99 % of control and 103 % of control | dose: 100.0 mg/kg/injection, schedule: Q01DX009 (ip), vehicle: saline 99 % of control

CCOP(=O)(CS(=O)(=O)CCC1(C)NC(=O)NC1=O)OCC (centres undefined)
inactive: dose: 60.0 mg/kg/injection, schedule: Q01DX005 (ip), vehicle: saline 101 % of control | dose: 120.0 mg/kg/injection, schedule: Q01DX005 (ip), vehicle: saline 103 % of control | dose: 240.0 mg/kg/injection, schedule: Q01DX005 (ip), vehicle: saline 103 % of control

N#Cc1c2c(n3c1[nH]c(=O)c1ccccc13)CCCC2
inactive: [4] 105 % of control | [5] 100 % of control | [6] 99 % of control

CCOP(=O)(O)C1CCCC(C)[N-]1.CCOP(=O)(O)C1CCCC(C)[N-]1.[Co+2] (centres undefined)
inactive: dose: 25.0 mg/kg/injection, schedule: Q04DX003 (ip), vehicle: Klucel (hydroxypropylcellulose) (HPC) 107 % of control | [2] 95 % of control | dose: 100.0 mg/kg/injection, schedule: Q04DX003 (ip), vehicle: Klucel (hydroxypropylcellulose) (HPC) 99 % of control and 105 % of control
